Results taken from ChEMBL document CHEMBL4619777, “A New Class of Dengue and West Nile Virus Protease Inhibitors with Submicromolar Activity in Reporter Gene DENV-2 Protease and Viral Replication Assays” (J Med Chem, 2020).
Residues, ends and D or L forms follow the SMILES beside them. *: point of attachment. Bz = O=C(c1ccccc1)*

Legend:
[1] = molecular target: Genome polyprotein (West Nile virus) (UniProt P06935); test: Inhibition of West Nile virus NS2B-NS3 protease expressed in Escherichia coli BL21 lambda (DE3) cells at 50 uM using Abz-Gly-Leu-Lys-Arg-Gly-Gly-3-(NO2)Tyr as substrate preincubated for 15 mins followed by substrate addition measured for 15 mins by fluorimetric analysis relative to control
[2] = molecular target: Trypsin (Homo sapiens, UniProt P07477+P07478+P35030); test: Inhibition of trypsin (unknown origin) at 50 uM using Boc-Val-Pro-Arg-AMC as substrate preincubated for 15 mins followed by substrate addition and measured for 15 mins by fluorimetric assay relative to control; assay type: protein assay; conditions: 0.25 h, 50 µM
[3] = Cytotoxicity against human HeLa cells assessed as reduction in cell viability measured after 24 hrs by celltiter-blue assay; assay type: cell-based
[4] = molecular target: Genome polyprotein (dengue virus type 2) (UniProt P29990); test: Inhibition of Dengue virus serotype 2 NS2B-NS3 protease transfected in human HeLa cells at 12.5 uM measured after 24 hrs by Renilla-luciferase reporter gene assay relative to control; assay type: cell-based
[5] = molecular target: Genome polyprotein (dengue virus type 2) (UniProt P29990); test: Inhibition of Dengue virus serotype 2 NS2B-NS3 protease expressed in Escherichia coli BL21 lambda (DE3) cells at 50 uM using Abz-Nle-Lys-Arg-Arg-Ser-3-(NO2)Tyr as substrate preincubated for 15 mins followed by substrate addition and measured for 15 mins by FRET assay relative to control
[6] = molecular target: Prothrombin (Homo sapiens, UniProt P00734); test: Inhibition of thrombin (unknown origin) at 25 uM using Boc-Val-Pro-Arg-AMC as substrate preincubated for 15 mins followed by substrate addition and measured for 15 mins by fluorimetric assay; conditions: 0.25 h
[7] = molecular target: T1, Genome polyprotein (dengue virus type 2, UniProt P29990); test: Inhibition of Dengue virus serotype 2 NS2B-NS3 protease expressed in Escherichia coli BL21 lambda (DE3) cells using Abz-Nle-Lys-Arg-Arg-Ser-3-(NO2)Tyr as substrate preincubated for 15 mins followed by substrate addition and measured for 15 mins by FRET assay
[8] = molecular target: Genome polyprotein (West Nile virus, UniProt P06935); test: Inhibition of West Nile virus NS2B-NS3 protease expressed in Escherichia coli BL21 lambda (DE3) cells using Abz-Gly-Leu-Lys-Arg-Gly-Gly-3-(NO2)Tyr as substrate preincubated for 15 mins followed by substrate addition measured for 15 mins by fluorimetric analysis
[9] = molecular target: T1, Genome polyprotein; test: Inhibition of Dengue virus serotype 2 NS2B-NS3 protease transfected in human HeLa cells measured after 24 hrs by Renilla-luciferase reporter gene assay; assay type: cell-based

Genome polyprotein (West Nile virus, UniProt P06935), sequence (P06935 1371-1501 limits assumed): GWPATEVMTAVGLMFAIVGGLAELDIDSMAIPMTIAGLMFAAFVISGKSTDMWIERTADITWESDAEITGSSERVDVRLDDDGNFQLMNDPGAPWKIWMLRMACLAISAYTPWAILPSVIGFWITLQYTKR
Genome polyprotein (West Nile virus, UniProt P06935), sequence (P06935 1502-2120 limits assumed): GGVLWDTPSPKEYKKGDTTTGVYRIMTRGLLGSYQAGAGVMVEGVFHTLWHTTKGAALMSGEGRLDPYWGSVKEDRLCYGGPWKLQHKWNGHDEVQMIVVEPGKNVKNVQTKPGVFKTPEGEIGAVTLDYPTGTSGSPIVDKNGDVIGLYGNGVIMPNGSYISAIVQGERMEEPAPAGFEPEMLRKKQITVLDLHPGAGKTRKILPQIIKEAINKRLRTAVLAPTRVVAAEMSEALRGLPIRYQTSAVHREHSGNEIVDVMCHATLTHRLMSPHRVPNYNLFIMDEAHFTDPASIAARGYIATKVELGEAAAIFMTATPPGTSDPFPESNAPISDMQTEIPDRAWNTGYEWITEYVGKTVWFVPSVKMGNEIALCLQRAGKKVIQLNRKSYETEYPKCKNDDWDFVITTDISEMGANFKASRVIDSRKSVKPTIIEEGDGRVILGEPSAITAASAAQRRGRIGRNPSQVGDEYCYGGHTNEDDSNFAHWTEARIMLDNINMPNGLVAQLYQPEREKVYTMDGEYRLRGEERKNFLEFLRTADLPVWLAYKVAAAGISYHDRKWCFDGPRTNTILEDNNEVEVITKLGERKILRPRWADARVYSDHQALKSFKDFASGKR
Genome polyprotein (West Nile virus), sequence (P06935 whole entry): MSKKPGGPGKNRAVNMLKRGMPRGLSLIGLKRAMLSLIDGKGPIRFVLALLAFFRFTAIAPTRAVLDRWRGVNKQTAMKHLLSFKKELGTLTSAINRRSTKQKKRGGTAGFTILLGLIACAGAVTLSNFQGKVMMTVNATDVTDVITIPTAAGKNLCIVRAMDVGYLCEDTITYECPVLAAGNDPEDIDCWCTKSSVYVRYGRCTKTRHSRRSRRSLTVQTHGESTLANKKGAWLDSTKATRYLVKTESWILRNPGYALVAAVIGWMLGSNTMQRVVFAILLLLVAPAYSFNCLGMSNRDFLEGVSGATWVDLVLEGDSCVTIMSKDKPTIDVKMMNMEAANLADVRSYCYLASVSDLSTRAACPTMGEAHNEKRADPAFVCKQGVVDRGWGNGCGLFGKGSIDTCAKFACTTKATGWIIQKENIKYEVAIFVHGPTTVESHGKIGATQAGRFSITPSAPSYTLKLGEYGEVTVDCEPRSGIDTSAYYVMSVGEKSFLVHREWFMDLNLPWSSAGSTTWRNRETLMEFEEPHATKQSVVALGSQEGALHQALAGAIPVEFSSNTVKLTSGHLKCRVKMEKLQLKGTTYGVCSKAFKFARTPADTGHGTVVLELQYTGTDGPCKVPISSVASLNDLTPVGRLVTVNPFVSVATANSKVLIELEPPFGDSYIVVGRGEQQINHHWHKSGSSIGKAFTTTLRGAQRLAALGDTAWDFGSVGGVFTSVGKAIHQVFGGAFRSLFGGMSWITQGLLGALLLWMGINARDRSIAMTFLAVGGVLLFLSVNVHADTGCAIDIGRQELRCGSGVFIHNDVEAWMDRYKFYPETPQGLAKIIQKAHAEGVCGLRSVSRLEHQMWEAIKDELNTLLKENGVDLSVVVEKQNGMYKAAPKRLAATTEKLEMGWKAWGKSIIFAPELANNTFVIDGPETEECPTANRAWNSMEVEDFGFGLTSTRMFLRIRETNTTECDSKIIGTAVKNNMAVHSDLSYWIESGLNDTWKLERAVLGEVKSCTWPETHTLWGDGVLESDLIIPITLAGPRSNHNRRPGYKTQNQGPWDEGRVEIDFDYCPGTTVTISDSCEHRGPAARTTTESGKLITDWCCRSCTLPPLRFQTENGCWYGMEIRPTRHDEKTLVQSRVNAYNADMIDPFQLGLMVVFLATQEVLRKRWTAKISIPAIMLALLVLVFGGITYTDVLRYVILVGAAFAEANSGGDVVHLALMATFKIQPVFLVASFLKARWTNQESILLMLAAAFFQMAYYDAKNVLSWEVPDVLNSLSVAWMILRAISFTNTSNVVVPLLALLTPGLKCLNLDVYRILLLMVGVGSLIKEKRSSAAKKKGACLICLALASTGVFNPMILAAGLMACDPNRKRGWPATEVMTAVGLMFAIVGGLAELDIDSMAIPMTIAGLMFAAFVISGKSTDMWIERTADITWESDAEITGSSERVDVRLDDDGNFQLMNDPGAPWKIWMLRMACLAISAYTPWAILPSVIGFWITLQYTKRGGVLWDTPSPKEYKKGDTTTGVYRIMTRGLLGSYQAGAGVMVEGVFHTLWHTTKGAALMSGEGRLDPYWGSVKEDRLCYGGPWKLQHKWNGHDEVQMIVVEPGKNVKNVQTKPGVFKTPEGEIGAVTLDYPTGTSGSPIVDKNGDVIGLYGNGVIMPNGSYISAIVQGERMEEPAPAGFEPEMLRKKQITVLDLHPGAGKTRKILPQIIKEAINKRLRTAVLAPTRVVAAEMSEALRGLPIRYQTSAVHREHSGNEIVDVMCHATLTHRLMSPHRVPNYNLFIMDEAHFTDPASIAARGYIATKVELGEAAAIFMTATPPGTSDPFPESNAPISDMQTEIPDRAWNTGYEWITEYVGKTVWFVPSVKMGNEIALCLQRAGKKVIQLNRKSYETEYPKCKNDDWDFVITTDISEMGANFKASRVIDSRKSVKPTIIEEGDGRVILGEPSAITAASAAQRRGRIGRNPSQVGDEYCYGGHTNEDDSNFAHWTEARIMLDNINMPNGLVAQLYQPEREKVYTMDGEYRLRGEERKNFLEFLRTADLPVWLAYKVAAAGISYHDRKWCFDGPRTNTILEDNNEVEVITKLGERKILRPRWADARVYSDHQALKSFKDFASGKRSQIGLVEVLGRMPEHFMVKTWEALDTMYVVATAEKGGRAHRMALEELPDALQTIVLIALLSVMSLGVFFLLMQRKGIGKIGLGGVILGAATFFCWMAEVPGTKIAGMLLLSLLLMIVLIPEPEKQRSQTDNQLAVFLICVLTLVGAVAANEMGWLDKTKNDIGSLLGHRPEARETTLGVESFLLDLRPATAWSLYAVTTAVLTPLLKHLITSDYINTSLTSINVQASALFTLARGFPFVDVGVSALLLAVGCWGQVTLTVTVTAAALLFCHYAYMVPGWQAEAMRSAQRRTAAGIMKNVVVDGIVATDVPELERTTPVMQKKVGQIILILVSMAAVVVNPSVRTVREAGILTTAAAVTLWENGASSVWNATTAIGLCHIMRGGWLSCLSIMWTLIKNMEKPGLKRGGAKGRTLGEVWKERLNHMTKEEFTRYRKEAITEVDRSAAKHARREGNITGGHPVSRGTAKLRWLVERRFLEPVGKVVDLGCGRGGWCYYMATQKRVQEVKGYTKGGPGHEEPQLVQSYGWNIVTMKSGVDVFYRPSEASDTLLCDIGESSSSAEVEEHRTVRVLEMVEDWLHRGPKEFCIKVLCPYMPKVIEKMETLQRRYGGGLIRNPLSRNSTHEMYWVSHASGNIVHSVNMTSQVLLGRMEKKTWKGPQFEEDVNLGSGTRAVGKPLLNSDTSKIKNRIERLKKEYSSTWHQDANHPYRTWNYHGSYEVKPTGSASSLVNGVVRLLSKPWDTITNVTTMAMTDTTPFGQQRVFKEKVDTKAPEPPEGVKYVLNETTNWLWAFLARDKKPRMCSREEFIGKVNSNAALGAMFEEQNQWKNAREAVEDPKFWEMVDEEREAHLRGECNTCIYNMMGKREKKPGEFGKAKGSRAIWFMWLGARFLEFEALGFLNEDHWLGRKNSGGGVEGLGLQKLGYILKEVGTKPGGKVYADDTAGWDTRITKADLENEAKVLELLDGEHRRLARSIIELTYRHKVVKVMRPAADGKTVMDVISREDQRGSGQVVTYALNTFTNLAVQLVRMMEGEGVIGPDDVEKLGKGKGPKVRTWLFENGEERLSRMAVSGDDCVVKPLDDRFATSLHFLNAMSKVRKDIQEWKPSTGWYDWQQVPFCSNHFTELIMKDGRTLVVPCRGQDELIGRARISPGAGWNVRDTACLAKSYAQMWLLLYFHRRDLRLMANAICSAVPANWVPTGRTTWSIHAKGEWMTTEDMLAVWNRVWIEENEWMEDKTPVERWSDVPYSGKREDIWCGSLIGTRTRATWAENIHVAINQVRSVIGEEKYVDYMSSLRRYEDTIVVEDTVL

SMILES	inhibition [1] [%]	inhibition (INH) [2]	CC50 at 24 h [3] [µM]	inhibition [4] [%]	inhibition [5] [%]	inhibition (INH) [6]	IC50 [7] [µM]	IC50 [8] [µM]	EC50 [9] [µM]
N=C(N)Nc1ccc(CNC(=O)[C@@H](NC(=O)c2ccccc2)c2ccc(OCc3ccccc3)cc2)cc1.O=C(O)C(F)(F)F	18.9	Not Active	> 50	10.5	39	Not Active	–	–	–
CCCCCC(=O)N[C@H](C(=O)NCc1ccccc1)c1ccc(OCc2ccccc2)cc1	< 10	Not Active	> 50	< 10	< 10	Not Active	–	–	–
CCCCCC(=O)N[C@H](C(=O)NCc1ccc(C#N)cc1)c1ccc(OCc2ccccc2)cc1	25.6	Not Active	> 50	28.3	< 10	Not Active	–	–	–
CCCCCC(=O)N[C@H](C(=O)NCc1ccc(NC(=N)N)cc1)c1ccc(OCc2ccc(C(C)(C)C)cc2)cc1.O=C(O)C(F)(F)F	98.9	Not Active	> 12.5	38.7	98.1	Not Active	13	16	–
CCCCCC(=O)N[C@@H](C(=O)NCc1ccc(CN)cc1)c1ccc(OCc2ccc(Cl)c(Cl)c2)cc1.O=C(O)C(F)(F)F	100	Not Active	< 12.5	–	95.2	Not Active	3.1	11	–
N=C(N)Nc1ccc(CNC(=O)[C@@H](NC(=O)c2ccc(OCc3ccc(Cl)cc3)cc2)c2ccc(OCc3ccccc3)cc2)cc1.O=C(O)C(F)(F)F	103	Not Active	> 12.5	44.6	98.7	Not Active	2.2	2.5	–
CCCCCC(=O)N[C@H](C(=O)NCc1ccc(NC(=N)N)cc1)c1ccc(OCc2cccc(OC)c2)cc1.O=C(O)C(F)(F)F	15.7	Not Active	> 50	26	32.5	Not Active	–	–	–
CCCCCC(=O)N[C@H](C(=O)NCc1ccc(N)nc1)c1ccc(OCc2ccccc2)cc1.O=C(O)C(F)(F)F	37.8	Not Active	> 50	57	22.6	Not Active	–	–	13
CCCCCC(=O)N[C@H](C(=O)Nc1ccc(CN)cc1)c1ccc(OCc2ccccc2)cc1.O=C(O)C(F)(F)F	37.6	Not Active	< 12.5	–	26.5	Not Active	–	–	–
CCCCCC(=O)N[C@@H](C(=O)NCc1ccc(NC(=N)N)cc1)c1ccc(OCc2ccc(C(F)(F)F)cc2)cc1.O=C(O)C(F)(F)F	102	Not Active	> 50	44.6	96.7	Not Active	6.6	14	–
CCCCCC(=O)N[C@H](C(=O)NCCN)c1ccc(OCc2ccccc2)cc1	< 10	Not Active	> 50	44	< 10	Not Active	–	–	–
CCCCCC(=O)N[C@H](C(=O)NCc1ccc(NC(=N)N)cc1)c1ccc(OCc2ccc(C#N)cc2)cc1.O=C(O)C(F)(F)F	24.8	Not Active	> 50	12.7	74.3	Not Active	40	–	–
N=C(N)NCCC[C@H](NC(=O)c1ccccc1)C(=O)N[C@@H](CCCCN)C(=O)NCC(N)=O (Bz-Arg-Lys-Gly-NH2)	15.3	Not Active	–	< 10	68.6	Not Active	23	–	–
N=C(N)NCCC[C@H](NC(=O)[C@H](Cc1ccc(CN)cc1)NC(=O)c1ccccc1)B(O)O	–	Not Active	–	–	–	Not Active	–	–	–
CCCCCC(=O)N[C@H](C(=O)Nc1ccc(NC(=N)N)cc1)c1ccc(OCc2ccccc2)cc1.O=C(O)C(F)(F)F	53.8	Not Active	≥ 12.5	–	62.6	Not Active	–	–	–
CCCCCC(=O)N[C@H](C(=O)NCc1ccc(NC(=O)CN)cc1)c1ccc(OCc2ccccc2)cc1	< 10	Not Active	> 50	10.1	28.2	Not Active	–	–	–
CCCCCC(=O)N[C@H](C(=O)NCc1ccc(N)cc1)c1ccc(OCc2ccccc2)cc1.O=C(O)C(F)(F)F	13.5	Not Active	> 50	43	13	Not Active	–	–	–
CCCCCC(=O)N[C@H](C(=O)NCCCCN)c1ccc(OCc2ccccc2)cc1	< 10	Not Active	> 50	45.8	21.3	Not Active	–	–	–
CCCCCC(=O)N[C@H](C(=O)NCc1ccc(NC(N)=O)cc1)c1ccc(OCc2ccccc2)cc1	34.2	Not Active	> 50	24	23.1	Not Active	–	–	–
N=C(N)Nc1ccc(CNC(=O)[C@@H](NC(=O)CC2CCCCC2)c2ccc(OCc3ccccc3)cc2)cc1.O=C(O)C(F)(F)F	99.5	Not Active	> 50	41.7	100	Not Active	9	28	–
CCCCCC(=O)N[C@H](C(=O)NCc1ccc(C(=O)NN)cc1)c1ccc(OCc2ccccc2)cc1	55	Not Active	> 50	30.7	28.3	Not Active	–	–	–
CC(=O)N[C@H](C(=O)NCc1ccc(NC(=N)N)cc1)c1ccc(OCc2ccccc2)cc1.O=C(O)C(F)(F)F	< 10	Not Active	> 50	28.9	< 10	Not Active	–	–	–
CCCCCC(=O)N[C@H](C(=O)NCc1cccc(CNC(=N)N)c1)c1ccc(OCc2ccccc2)cc1	32.7	Not Active	> 50	47.4	43.8	Not Active	–	–	–
CCCCCC(=O)N[C@H](C(=O)Nc1ccc(N)cc1)c1ccc(OCc2ccccc2)cc1.O=C(O)C(F)(F)F	10.7	Not Active	> 50	49.5	13.2	Not Active	–	–	–
CCCCCC(=O)N[C@H](C(=O)NCc1ccc(NC(=N)N)cc1)c1ccccc1.O=C(O)C(F)(F)F	< 10	Not Active	> 50	18.8	< 10	Not Active	–	–	–
N=C(N)NCCC[C@H](NC(=O)c1ccc(/C=C2\SC(=O)N(C3CCC3)C2=O)cc1)C(=O)N[C@@H](CCCCN)C(=O)N[C@H](C(N)=O)c1ccccc1	–	Not Active	–	–	–	Not Active	–	–	–
CCCCCC(=O)N[C@H](C(=O)N[C@@H](CCCCN)C(N)=O)c1ccc(OCc2ccccc2)cc1	< 10	Not Active	> 50	11.1	< 10	Not Active	–	–	–
N=C(N)Nc1ccc(CNC(=O)[C@@H](NC(=O)c2ccccc2-c2ccccc2)c2ccc(OCc3ccccc3)cc2)cc1.O=C(O)C(F)(F)F	88.1	Not Active	> 50	30.1	93.3	Not Active	24	35	–
CCCCCC(=O)N[C@H](C(=O)NCc1ccncc1)c1ccc(OCc2ccccc2)cc1	< 10	Not Active	> 50	40.6	< 10	Not Active	–	–	–
